Test results reported in patent publication US11242354B2, “4-sulfur substituted podophyllotoxin derivative and preparation method therefor and use thereof” (priority 2017, dated 2022).
Read-outs that look alike come from different tables or passages of the source.

Experiments:
HepG2 = test: MTT test for inhibition of tumor cells, HepG2; format: cell-based; settings: 48 h
Description: (§1) HepG2, HeLa cell lines and human normal liver cells HL-7702 in a logarithmic growth period were centrifuged at 1000 rpm for 5 min, and the supernatant was discarded, the cells were suspended with a suitable amount of culture medium to adjust the cell concentration to 3.5×10^4/well, the cells were seeded in 96-well plates, and the following experimental groups were set:
(§2) 100 μl of DMSO was added to each well, followed by shaking on a shaker for 30 min at 37° C., the absorbance (OD) was measured at 492 nm, and the MTT ratio was calculated as the OD value of drug group/OD value of negative control group.

HeLa = test: MTT test for inhibition of tumor cells, HeLa; format: cell-based; settings: 48 h
Description: as §1, §2

[1] = tested on: human normal hepatocytes HL-7702; test: MTT test on human normal hepatocytes HL-7702; settings: read-out: IC50 HL-7702
Description: as §1, §2

[2] = tested on: human lung cancer cell A549; test: Activity on tumor cell A549; format: cell-based; settings: vs etoposide
breast cancer cell MCF7 = test: Activity on tumor cell MCF7; format: cell-based, human; settings: for antitumor activity on MCF7 compared with etoposide: vs etoposide
[3] = tested on: human normal hepatocytes HL-7702
Description: as §1, §2

[4] = tested on: human cervical immortalized cells H8; test: Toxicity on normal cell line H8; format: cell-based
[5] = tested on: human embryonic lung cells MRC-5; test: Toxicity on normal cell line MRC-5; format: cell-based; settings: MRC5
[6] = tested on: human mammary epithelial cells HMEC; test: Toxicity on normal cell line HMEC; format: cell-based
[7] = human normal hepatocytes HL-7702, MTT, 48 h

Compound | IC50 (HepG2) | IC50 (HeLa) | IC50 [1, 7] | further results
4β-S-(3-phenyl-1,3,4-thiadiazol-2(3H)thione potassium salt-5)-4demethylepipodophyllotoxin [Compound 26] | 5.7 ± 0.33 µM | 48.49 ± 0.38 µM | – | –
4β-S-(3-phenyl-1,3,4-thiadiazol-2(3H)thione potassium salt-5)-podophyllotoxin [Compound 25] | 2.2 ± 0.28 µM | 31.9 ± 0.42 µM | – | –
4β-S-(5-phenylbenzoxazol-2)-4demethylepipodophyllotoxin [Compound 12] | 10.2 ± 0.46 µM | > 100 µM | 56.8 ± 1.32 µM | –
4β-S-(5-phenylbenzoxazol-2)-podophyllotoxin [Compound 11] | 5.25 ± 0.13 µM | > 100 µM | 70.7 ± 1.65 µM | –
4β-S-(6-chlorobenzoxazol-2)-4demethylepipodophyllotoxin [Compound 16] | 22.3 ± 1.46 µM | 32.3 ± 1.87 µM | 68.3 ± 4.5 µM | –
4β-S-(6-chlorobenzoxazol-2)-podophyllotoxin [Compound 15] | 5.23 ± 0.35 µM | 7.23 ± 0.44 µM | 43.3 ± 3.5 µM | –
COc1cc(C2c3cc4c(cc3C(Sc3cc(C(F)(F)F)ccn3)C3COC(=O)C23)OCO4)cc(OC)c1OC (stereo not drawn) [Compound 1, 4-β-S-(4-trifluoromethylpyridin-2)-podophyllotoxin] | 2.04 ± 0.3 µM | 1.86 ± 0.2 µM | 57 ± 1.1 µM | –
COc1cc(C2c3cc4c(cc3C(Sc3cc(C(F)(F)F)ccn3)C3COC(=O)C23)OCO4)cc(OC)c1O (stereo not drawn) [Compound 2, 4-β-S-(4-trifluoromethylpyridin-2)-4demethylepipodophyllotoxin] | 4.5 ± 0.45 µM | 4.58 ± 0.13 µM | 42.3 ± 1.52 µM | –
COc1cc(C2c3cc4c(cc3C(Sc3nccc(C(F)(F)F)n3)C3COC(=O)C23)OCO4)cc(OC)c1OC (stereo not drawn) [Compound 3, 4-β-S-(4-trifluoromethylpyrimidin-2)-podophyllotoxin] | 5.05 ± 0.78 µM | 10.1 ± 0.22 µM | 69.8 ± 1.23 µM | –
COc1cc(C2c3cc4c(cc3C(Sc3nccc(C(F)(F)F)n3)C3COC(=O)C23)OCO4)cc(OC)c1O (stereo not drawn) [Compound 4, 4-β-S-(4-trifluoromethylpyrimidin-2)-4demethylepipodophyllotoxin] | 7.37 ± 0.32 µM | 39.36 ± 0.35 µM | 54.9 ± 0.98 µM | –
COc1cc(C2c3cc4c(cc3C(Sc3ccc(F)cc3)C3COC(=O)C23)OCO4)cc(OC)c1OC (stereo not drawn) [Compound 5, 4β-S-(4-fluorobenzene-1)-podophyllotoxin] | 2.28 ± 0.1 µM | 9.5 ± 0.43 µM | 44.5 ± 1 µM | –
COc1cc(C2c3cc4c(cc3C(Sc3nc5cc(F)ccc5s3)C3COC(=O)C23)OCO4)cc(OC)c1OC (stereo not drawn) [Compound 7, 4β-S-(5-fluorobenzothiazol-2)-podophyllotoxin] | 1 ± 0.06 µM | 1.47 ± 0.32 µM | 97 ± 2.1 µM | –
COc1cc([C@@H]2c3cc4c(cc3[C@@H](Sc3nc5cc(F)ccc5s3)[C@H]3COC(=O)[C@H]23)OCO4)cc(OC)c1O [Compound 8, 4β-S-(5-fluorobenzothiazol-2)-4demethylepipodophyllotoxin] | – | – | – | antitumor activity on A549 compared with etoposide [2]: significantly improved; antitumor activity on MCF7 compared with etoposide (breast cancer cell MCF7): significantly improved; toxicity on HL-7702 cell line compared with control compounds [3]: significantly lower
COc1cc(C2c3cc4c(cc3C(Sc3nc5cc(F)ccc5o3)C3COC(=O)C23)OCO4)cc(OC)c1OC (stereo not drawn) [Compound 9, 4β-S-(5-fluorobenzoxazol-2)-podophyllotoxin] | 0.89 ± 0.07 µM | – | > 1000 µM | –
COc1cc([C@@H]2c3cc4c(cc3[C@@H](Sc3nc5cc(F)ccc5o3)[C@H]3COC(=O)[C@H]23)OCO4)cc(OC)c1O [Compound 10, 4β-S -(5-fluorobenzoxazol-2)-4demethylepipodophyllotoxin] | – | – | – | antitumor activity on A549 compared with etoposide [2]: significantly improved; antitumor activity on MCF7 compared with etoposide (breast cancer cell MCF7): significantly improved; toxicity on HL-7702 cell line compared with control compounds [3]: significantly lower
COc1cc(C2c3cc4c(cc3C(Sc3nc5cc(C)ccc5o3)C3COC(=O)C23)OCO4)cc(OC)c1OC (stereo not drawn) [Compound 13, 4β-S-(5-methylbenzoxazol-2)-podophyllotoxin] | 7.31 ± 0.4 µM | 9.31 ± 0.6 µM | 60.1 ± 1.6 µM | –
COc1cc(C2c3cc4c(cc3C(Sc3nc5cc(C)ccc5o3)C3COC(=O)C23)OCO4)cc(OC)c1O (stereo not drawn) [Compound 14, 4β-S-(5-methylbenzoxazol-2)-4demethylepipodophyllotoxin] | 7.94 ± 0.21 µM | 11.9 ± 0.99 µM | 78.7 ± 2.5 µM | –
COc1cc(C2c3cc4c(cc3C(Sc3nc5cc(OC(F)F)ccc5[nH]3)C3COC(=O)C23)OCO4)cc(OC)c1OC (stereo not drawn) [Compound 17, 4β-S-(5-difluoromethoxybenzimidazol-2)-podophyllotoxin] | 0.92 ± 0.05 µM | 1.15 ± 0.16 µM | 8.15 ± 0.87 µM | –
COc1cc(C2c3cc4c(cc3C(Sc3nc5cc(OC(F)F)ccc5[nH]3)C3COC(=O)C23)OCO4)cc(OC)c1O (stereo not drawn) [Compound 18, 4β-S-(5-difluoromethoxybenzimidazol-2)-4demethylepipodophyllotoxin] | 2.09 ± 0.17 µM | 7.6 ± 0.51 µM | 11.3 ± 1.87 µM | –
COc1cc(C2c3cc4c(cc3C(Sc3ccc5ccccc5c3)C3COC(=O)C23)OCO4)cc(OC)c1OC (stereo not drawn) [Compound 19, 4β-S-(naphthalen-2)-podophyllotoxin] | 3.06 ± 0.11 µM | 3.91 ± 0.42 µM | 90.9 ± 3.49 µM | –
COc1cc(C2c3cc4c(cc3C(Sc3nc5ncccc5[nH]3)C3COC(=O)C23)OCO4)cc(OC)c1OC (stereo not drawn) [Compound 21, 4β-S-(1H-imidazo [4,5-B]pyridin-2)-podophyllotoxin] | 4.23 ± 0.36 µM | 64.23 ± 0.45 µM | 56.6 ± 2.34 µM | –
COc1cc(C2c3cc4c(cc3C(Sc3nnnn3-c3ccccc3)C3COC(=O)C23)OCO4)cc(OC)c1OC (stereo not drawn) [Compound 23, 4β-S-(1-phenyltetrazol-5)-podophyllotoxin] | 6.17 ± 0.27 µM | 15.8 ± 0.56 µM | 87.1 ± 4.2 µM | –
COc1cc([C@@H]2c3cc4c(cc3[C@@H](Sc3nc(-c5ccncc5)cs3)[C@H]3COC(=O)[C@H]23)OCO4)cc(OC)c1OC [Compound 27, 4β-S-(4-(4-pyridyl)thiazol-2)-podophyllotoxin] | 0.89 ± 0.19 µM | 1.95 ± 0.36 µM | 71.4 ± 2.71 µM | –
COc1cc([C@@H]2c3cc4c(cc3[C@@H](Sc3nc(-c5ccncc5)cs3)[C@H]3COC(=O)[C@H]23)OCO4)cc(OC)c1O [Compound 28, 4β-S-(4-(4-pyridyl)thiazol-2)-4demethylepipodophyllotoxin] | 29.2 ± 1.34 µM | 24.1 ± 1.29 µM | 60.1 ± 2.88 µM | –
COc1cc([C@@H]2c3cc4c(cc3[C@@H](O[C@@H]3O[C@@H]5CO[C@@H](C)O[C@H]5[C@H](O)[C@H]3O)[C@H]3COC(=O)[C@H]23)OCO4)cc(OC)c1O [Etoposide, etoposide, reference compound] | – | – | – | IC50 (HepG2; Homo sapiens): 20.7 ± 1.7 µM; IC50 (HeLa; Homo sapiens): 25.4 ± 2.9 µM; IC50 [4]: 80.1 ± 1.35 µM; IC50 [5]: 30.3 ± 1.21 µM; IC50 (breast cancer cell MCF7; Homo sapiens, tumor cell line MCF7): 56.8 ± 1.22 µM; IC50 [6]: 23.2 ± 1.34 µM; IC50 ([1]; Homo sapiens, L02, 48 h): 28.8 ± 3.4 µM
COc1cc([C@@H]2c3cc4c(cc3[C@H](O)[C@H]3COC(=O)[C@H]23)OCO4)cc(OC)c1OC [Podophyllotoxin, podophyllotoxin] | – | – | – | IC50 (HepG2; Homo sapiens): 55.53 ± 0.24 µM; IC50 (HeLa; Homo sapiens): 75.81 ± 0.73 µM; IC50 ([1]; Homo sapiens, L02, 48 h): 67.18 ± 0.24 µM
